The source of these data is PubChem BioAssay (NCI).

For orientation: TGI means the concentration at which net growth stops. The low end stands for greater sensitivity of the cells, the high end for lower sensitivity of the cells. One may read the GI50 as the concentration at which growth is held to half of that of the control.

Structures are written as SMILES.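 Exposure lasted 48 hours, with cells grown in 96-well plates and compounds tested at five concentrations. The concentration for 50% growth inhibition is given as GI50. TGI marks complete inhibition of growth.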 A value given as a limit tells only on which side of the number the result lay.

Among the test systems are 786-0 renal; A498 renal; HCT-116 colon; HOP-92 NSCLC; K-562 leukemia; NCI-H23 lung; SNB-75 CNS; UO-31 renal; MDA-MB-435; BT-549 breast.
Assay in all cases: DTP human tumour cell line panel, 48 h

For the compound `O=c1nc(NC(c2ccccc2)(c2ccccc2)c2ccccc2)ccn1CCNCCn1ccc(NC(c2ccccc2)(c2ccccc2)c2ccccc2)nc1=O`, the TGI in the experiment on 786-0 renal is 31.5 µM; in the experiment on A498 renal it was 78 µM; with HCT-116 colon, 73 µM; with HOP-92 NSCLC, 24.4 µM; in the experiment on K-562 leukemia, more than 100 µM; in the experiment on NCI-H23 lung, 26.8 µM. Moreover, the TGI with SNB-75 CNS and with UO-31 renal was more than 100 µM each time.

For the compound `CN(C)CCNC(=O)c1cccc2[nH]c(-c3cccnc3)nc12`, the TGI with 786-0 renal was 55.6 µM; in the experiment with A498 renal it was 30.6 µM; in the experiment with HCT-116 colon it was 42.8 µM; in the experiment on HOP-92 NSCLC, 53.9 µM; in the experiment on K-562 leukemia, more than 100 µM; in the experiment with NCI-H23 lung, 44.9 µM. The figures for the TGI with SNB-75 CNS and with UO-31 renal were 73.3 µM and 39.5 µM, respectively.

Consider `COc1ccc(CC(=O)NCCc2ccc(OC)c(OC)c2)cc1Br`, for which the TGI in the experiment on 786-0 renal, with A498 renal, in the experiment with HOP-92 NSCLC, with K-562 leukemia, in the experiment on NCI-H23 lung and with UO-31 renal was more than 100 µM throughout.

Take `CC(NCCC(=O)N(CCC(=O)N(CCC(=O)N(CCC(=O)N(CCC(=O)N(CCC(=O)N(CCC(=O)N(CCC(=O)N(CCC(=O)N(CCC(=O)O)[C@H](C)c1ccccc1)[C@H](C)c1ccccc1)[C@H](C)c1ccccc1)[C@H](C)c1ccccc1)[C@H](C)c1ccccc1)[C@H](C)c1ccccc1)[C@H](C)c1ccccc1)[C@H](C)c1ccccc1)[C@H](C)c1ccccc1)c1ccccc1` (stereo partly drawn): the GI50 in the experiment on 786-0 renal is 3.46 µM; with A498 renal it was 2.37 µM; with HCT-116 colon, 1.95 µM; in the experiment on HOP-92 NSCLC it was 0.753 µM; in the experiment with K-562 leukemia, 2.29 µM; with MDA-MB-435, 1.71 µM. Besides, the GI50 in the experiment on NCI-H23 lung is 3.9 µM; with SNB-75 CNS, 2.2 µM; with UO-31 renal, 3.55 µM. In addition, the TGI is more than 75 µM with 786-0 renal; 11.8 µM in the experiment on A498 renal; more than 19.9 µM in the experiment with HCT-116 colon; 2.34 µM with HOP-92 NSCLC; more than 75 µM with K-562 leukemia; more than 16.1 µM in the experiment with MDA-MB-435. Moreover, the TGI in the experiment with NCI-H23 lung is 49.1 µM; with SNB-75 CNS, 41.1 µM; with UO-31 renal it was more than 75 µM.

Take `COc1ccc(/C=C(\C#N)n2nnc3ccccc32)cc1`: the GI50 in the experiment with 786-0 renal was 0.63 µM; with A498 renal, 0.188 µM; with BT-549 breast it was 1.11 µM; with HCT-116 colon it was 0.0955 µM; with HOP-92 NSCLC, 0.272 µM; in the experiment with K-562 leukemia, 0.043 µM. The GI50 in the experiment on NCI-H23 lung was 0.572 µM; in the experiment on SNB-75 CNS, 0.0327 µM; in the experiment on UO-31 renal, 1.01 µM. Besides, the TGI with 786-0 renal was 7.22 µM; in the experiment on A498 renal, 0.779 µM; in the experiment with BT-549 breast, 17.1 µM; with HCT-116 colon it was 2.15 µM; with HOP-92 NSCLC, 3.47 µM; in the experiment with K-562 leukemia, more than 100 µM. The figures for the TGI in the experiment with NCI-H23 lung, in the experiment with SNB-75 CNS and in the experiment on UO-31 renal were 50.4 µM, 0.337 µM and 13 µM, respectively.

For `Cc1c(C(=O)CC(=O)C(=O)Nc2ccc(Cl)cc2)[n+](=O)c2ccccc2n1[O-]`, the TGI in the experiment with 786-0 renal, with A498 renal, with HCT-116 colon, in the experiment with HOP-92 NSCLC, with K-562 leukemia and in the experiment on NCI-H23 lung was more than 100 µM each time. Moreover, the TGI with SNB-75 CNS and with UO-31 renal was more than 100 µM throughout.

For `CCCC/C=C1\CCC(C)(CN(C)C)C1=O` (stereo not drawn), the TGI with 786-0 renal, in the experiment with A498 renal, in the experiment with HCT-116 colon, in the experiment on HOP-92 NSCLC, in the experiment on K-562 leukemia and with NCI-H23 lung was more than 100 µM in each case. Besides, the TGI in the experiment on UO-31 renal was more than 100 µM.

With `Cc1ccc(NC(=O)C(=O)CC(=O)c2c(C)n([O-])c3ccccc3[n+]2=O)cc1`, the TGI in the experiment on 786-0 renal is more than 100 µM; with A498 renal, more than 100 µM; in the experiment with HCT-116 colon, 37.2 µM; in the experiment on HOP-92 NSCLC, more than 100 µM; in the experiment on K-562 leukemia, 56.4 µM; with NCI-H23 lung, 56.6 µM. Besides, the values for the TGI with SNB-75 CNS and in the experiment on UO-31 renal were 58 µM and more than 100 µM, respectively.

`O=C1CCCC(=O)N1CCc1c[nH]c2ccccc12`: the TGI in the experiment with 786-0 renal, in the experiment on A498 renal, in the experiment on HCT-116 colon, in the experiment on HOP-92 NSCLC, in the experiment on K-562 leukemia and with NCI-H23 lung was more than 100 µM each time. For the same compound, the TGI with SNB-75 CNS and with UO-31 renal was more than 100 µM each time.

With `COC(=O)[C@]12CC=C3O[C@@H]4OC5(CCCCC5)O[C@@H]4C3[C@@H]1C(=O)CCC2=O` (stereo partly drawn), the TGI with 786-0 renal, in the experiment on A498 renal, with HCT-116 colon, with HOP-92 NSCLC, in the experiment on K-562 leukemia and with NCI-H23 lung was more than 100 µM each time. Further, the TGI in the experiment with SNB-75 CNS and with UO-31 renal was more than 100 µM each time.

For `Fc1ccccc1C1SCc2nc3ccccc3n21` (stereo not drawn), the total growth inhibition concentration (TGI) in the experiment on 786-0 renal was more than 100 µM; in the experiment with A498 renal, more than 100 µM; with HCT-116 colon, more than 100 µM; in the experiment on HOP-92 NSCLC it was 72.7 µM; in the experiment on K-562 leukemia, more than 100 µM; in the experiment on NCI-H23 lung, more than 100 µM. The TGI with SNB-75 CNS and in the experiment with UO-31 renal was more than 100 µM each time.

`Cc1cc(NS(=O)(=O)c2ccc(NC(=O)c3ccc(Cl)c4c(Nc5ccc(S(=O)(=O)N=C(N)N)cc5)c5ccccc5nc34)cc2)no1`: the TGI in the experiment with 786-0 renal was more than 100 µM; in the experiment on A498 renal, more than 100 µM; in the experiment with HCT-116 colon, more than 100 µM; in the experiment on K-562 leukemia, more than 100 µM; in the experiment on NCI-H23 lung, more than 100 µM; in the experiment on SNB-75 CNS, 95.6 µM. The same compound came in with a TGI with UO-31 renal of more than 100 µM.

As for `O=C(O)CCSC(=O)Nc1ccccc1F`, the TGI with 786-0 renal, with A498 renal, in the experiment on HCT-116 colon, in the experiment with K-562 leukemia, in the experiment with NCI-H23 lung and with UO-31 renal was more than 100 µM in each case.
